In ChEMBL document CHEMBL3091345, “Strepsesquitriol, a rearranged zizaane-type sesquiterpenoid from the deep-sea-derived actinomycete Streptomyces sp. SCSIO 10355” (2013) one finds inhibition data, which are given here for two molecules.

The assay relates to RAW264.7. Put plainly: Antiinflammatory activity in mouse RAW264.7 cells assessed as inhibition of LPS-induced TNFalpha production at 100 uM treated 4 hrs before LPS challenge measured after overnight incubation by ELISA. The class given is functional. (In general: ELISA stands for enzyme-linked immunosorbent assay.)

Turning to `C[C@H]1C[C@@H](O)[C@]23C[C@H](CC[C@]12O)C(C)(C)[C@]3(C)O`, the inhibition – broadly, the change of the read-out against control, counted positive when it falls – at 100 µM worked out at 35.4%.
With `Cc1ccc(S(=O)(=O)N[C@@H](Cc2ccccc2)C(=O)CCl)cc1` [TPCK] the figure was 60.6%.
